Where a name gives a salt, the structure may show the parent alone. Read-outs that look alike come from different tables or passages of the source.
Tested on: murine neural precursor cells (neurosphere cultures)
Assay: HTS of LOPAC library against secondary neurosphere cultures, MTT proliferation assay at 3 μM, day 7 (z score, P value)
Type: cell-based, mouse
[1] = yes/no: significantly inhibited neurosphere proliferation in the primary screen
[2] = LOPAC library screen, 3 μM, MTT, secondary neurosphere cultures, day 7
[3] = LOPAC primary screen, neurosphere MTT proliferation, 3 μM, day 7
[4] = primary LOPAC screen, 3 μM, MTT, neurosphere proliferation
[5] = yes/no: significantly inhibited neurosphere proliferation (P<0.01) in the primary screen
[6] = yes = significantly inhibited neurosphere proliferation (P<0.01) in the primary screen
[7] = LOPAC library screen, 3 μM, MTT, neurosphere cultures
[8] = yes/no: significantly inhibited neurosphere proliferation (P<0.01) in primary screen
[9] = yes/no: significantly inhibited neurosphere proliferation in primary screen
[10] = LOPAC screen, neurosphere MTT proliferation, 3 μM, day 7

With Cc1scc2c1N(C(=O)CN1CCN(C)CC1)c1ccccc1NC2=O [Telenzepine dihydrochloride] the “Z Score” value (168 h, 3 µM) was 0.3813, the Z score (168 h, 3 µM) was 0.381 and the Activity [1] was “no”.

CN(C)CCC(c1ccc(Cl)cc1)c1ccccn1.O=C(O)/C=C\C(=O)O (single isomer, unassigned; (+)) [(+)-Chlorpheniramine maleate] was tested, and the Activity was “no”, the “Z Score” value [2] was −1.272 and the Z score [3] was −1.272.

For N#CCCN.N#CCCN.O=C(O)/C=C/C(=O)O [3-Aminopropionitrile fumarate], the “Z Score” value was 1.234, the Z score [4] was 1.234 and the Activity [1] was “no”.

With O=C(/C=C/c1ccc(O)cc1)c1ccc(O)cc1O [Isoliquiritigenin] the “Z Score” value (168 h, 3 µM) was −2.817, the Z score (168 h, 3 µM) was −2.817 and the Activity [5] was “yes”.

O=c1[nH]cc(F)c(=O)[nH]1 [5-Fluorouracil] was tested, and the “Z Score” value [2] was −7.749, the Z score [3] was −7.749 and the Activity [6] was “yes”.

In the case of O=C(O)c1nn(Cc2ccc(Cl)cc2Cl)c2ccccc12 [Lonidamine], the “Z Score” value [7] is reported as 0.4358, the Z score [3] is reported as 0.436 and the Activity [8] is reported as “no”.

C[C@]12CC[C@@H]3c4ccc(O)cc4CC[C@H]3[C@@H]1CC[C@@H]2O [beta-Estradiol] was tested, and the “Z Score” value was −0.5623, the Z score [3] was −0.562 and the Activity [8] was “no”.

For CS(=O)(=O)Nc1ccc([N+](=O)[O-])cc1Oc1ccccc1 [Nimesulide], the Activity was “yes”, the “Z Score” value [2] was −2.395 and the Z score [3] was −2.395.

With C[C@@H]1O[C@@H]1P(=O)([O-])[O-].[Na+].[Na+] [Phosphomycin disodium] the “Z Score” value [2] was −1.402, the Z score [3] was −1.402 and the Activity [6] was “no”.

With S(−)-Atenolol the “Z Score” value [7] was 0.617, the Z score [4] was 0.617 and the Activity [1] was “no”.

In the case of Brc1c(NC2=NCCN2)ccc2nccnc12 [UK 14,304], the Activity is reported as “no”, the “Z Score” value is reported as −0.2103 and the Z score is reported as −0.210.

For COC[C@H]1OC(=O)c2coc3c2[C@@]1(C)C1=C(C3=O)[C@@H]2CCC(=O)[C@@]2(C)C[C@H]1OC(C)=O [Wortmannin from Penicillium funiculosum], the “Z Score” value was 0.4079, the Z score [4] was 0.408 and the Activity [1] was “no”.

For “Histamine, R(−)-alpha-methyl-, dihydrochloride”, the “Z Score” value [2] was −1.469, the Z score [3] was −1.469 and the Activity [8] was “no”.

For CC(N/C(=N\C#N)Nc1ccncc1)C(C)(C)C (stereo not drawn) [Pinacidil], the “Z Score” value [2] was −2.117, the Z score [3] was −2.117 and the Activity [9] was “no”.

C[C@H](O)C(=O)C1=Nc2c(nc(N)[nH]c2=O)NC1 [Sepiapterin] was tested, and the “Z Score” value (168 h, 3 µM) was 1.795, the Z score (168 h, 3 µM) was 1.795 and the Activity [1] was “no”.

With CCNC(=O)[C@H]1O[C@@H](n2cnc3c(N)ncnc32)[C@H](O)[C@@H]1O [5′-N-Ethylcarboxamidoadenosine] the “Z Score” value [2] was −2.587, the Z score [3] was −2.587 and the Activity [5] was “yes”.

With Br.NC1CCc2cc(O)c(O)cc2C1 (stereo not drawn) [6,7-ADTN hydrobromide] the “Z Score” value [7] was 0.357, the Z score [10] was 0.357 and the Activity [8] was “no”.

For Cc1nccc2c1[nH]c1ccccc12 [Harmane], the “Z Score” value was −1.403 and the Z score [3] was −1.403.

In the case of NC(=O)COc1c(F)cc(SCCNS(=O)(=O)c2ccccc2)cc1F [2,6-Difluoro-4-[2-(phenylsulfonylamino)ethylthio]phenoxyacetamide], the “Z Score” value is reported as −0.4983, the Z score [3] is reported as −0.498 and the Activity [6] is reported as “no”.

In the case of CC(C)c1cccc(C(C)C)c1O [Propofol], the Activity is reported as “no”, the “Z Score” value is reported as 0.3768 and the Z score is reported as 0.377.

In the case of COc1cc(CC(=O)O)ccc1O [4-Hydroxy-3-methoxyphenylacetic acid], the “Z Score” value is reported as −0.5673, the Z score [3] is reported as −0.567 and the Activity [8] is reported as “no”.

In the case of CC(N)C(O)c1ccc(O)c(O)c1 (single isomer, unassigned; (-)) [(−)-alpha-Methylnorepinephrine], the “Z Score” value is reported as 1.193, the Z score [10] is reported as 1.193 and the Activity [8] is reported as “no”.

For COc1ccc(C(=O)NCc2cccnc2)cc1C(=O)NCc1cccnc1 [Picotamide], the “Z Score” value (LOPAC library screen at 3 μM, MTT, secondary neurosphere cultures, screened in singlets) was 1.736, the Z score [3] was 1.736 and the Activity [9] was “no”.

With O=C1CCC(N2C(=O)c3ccccc3C2=O)C(=O)N1 (stereo not drawn) [(B1)-Thalidomide] the “Z Score” value was 0.521.

In the case of C/C(=C\c1ccc(C(=O)O)cc1)c1ccc2c(c1)C(C)(C)CCC2(C)C [TTNPB], the “Z Score” value is reported as −2.158, the Z score [4] is reported as −2.158 and the Activity [1] is reported as “no”.

In the case of CSc1ccc2c(c1)N(CCC1CCCCN1C)c1ccccc1S2 (stereo not drawn) [Thioridazine hydrochloride], the “Z Score” value (168 h, 3 µM) is reported as 0.2356, the Z score (168 h, 3 µM) is reported as 0.236 and the Activity [5] is reported as “no”.

With O=C1CC2(CCCC2)CC(=O)N1CCCCN1CCN(c2ncccn2)CC1 [Buspirone hydrochloride] the Activity was “no”, the “Z Score” value (168 h, 3 µM) was −1.775 and the Z score (168 h, 3 µM) was −1.775.

In the case of O=C(O)[C@@H]1C[C@H](C(=O)O)N1 [cis-Azetidine-2,4-dicarboxylic acid], the “Z Score” value (168 h, 3 µM) is reported as −2.251, the Z score (168 h, 3 µM) is reported as −2.251 and the Activity [1] is reported as “no”.

With Br.CCCN1CCC2c3cc(O)ccc3CCC21 (racemic) [cis-(±)-8-OH-PBZI hydrobromide] the Z score [3] was −2.297 and the Activity [5] was “no”.

For NC[C@H](O)c1ccc(O)c(O)c1.O=C(O)C(O)C(O)C(=O)O (racemic) [(±)-Norepinephrine (+)bitartrate], the Z score [3] was 0.099 and the Activity [9] was “no”.

COC(=O)[C@@H](N)Cc1ccc(O)c(O)c1.Cl [L-3,4-Dihydroxyphenylalanine methyl ester hydrochloride] was tested, and the “Z Score” value [7] was 0.2769, the Z score [10] was 0.277 and the Activity [8] was “no”.

In the case of CCOC(=O)C1=C[C@]2(CC)CCCN3CCc4c(n1c1ccccc41)[C@@H]32 [Vinpocetine], the “Z Score” value [7] is reported as 0.4329, the Z score [4] is reported as 0.433 and the Activity [1] is reported as “no”.

In the case of (−)-Quinpirole hydrochloride, the “Z Score” value is reported as −1.565 and the Z score is reported as −1.565.

For CCN(CC)C(C)C(=O)N1c2ccccc2Sc2ccccc21 (stereo not drawn) [10-(alpha-Diethylaminopropionyl)-phenothiazine], the Z score [3] was −1.545 and the Activity [5] was “no”.

For CC(C(=O)O)c1cccc(C(=O)c2ccccc2)c1 (stereo not drawn) [Ketoprofen], the Activity was “no”, the “Z Score” value (LOPAC library screen at 3 μM, secondary neurosphere cultures, MTT) was −1.164 and the Z score [3] was −1.164.

For Hydroxytacrine maleate, the “Z Score” value was −0.2043, the Z score [3] was −0.204 and the Activity [8] was “no”.

For CC(C)(C)c1cc(C=C(C#N)C#N)cc(C(C)(C)C)c1O [Tyrphostin A9], the “Z Score” value [2] was −1.746, the Z score [4] was −1.746 and the Activity [1] was “no”.

For CC(C)NCC(O)COc1cccc2[nH]ccc12 (stereo not drawn) [Pindolol], the “Z Score” value [7] was −0.07895, the Z score [3] was −0.079 and the Activity [9] was “no”.

COc1ccccc1OCC(O)CN1CCN(CC(=O)Nc2c(C)cccc2C)CC1 (stereo not drawn) [Ranolazine dihydrochloride] was tested, and the “Z Score” value [2] was −2.104, the Z score [3] was −2.104 and the Activity [9] was “no”.

With N=C(N)SCCc1cnc[nH]1 [Imetit dihydrobromide] the “Z Score” value was −0.2452 and the Z score was −0.245.

With COc1cc(C(O)CN)ccc1O.Cl (stereo not drawn) [(B1)-Normetanephrine hydrochloride] the “Z Score” value [2] was −1.796.

C[C@]12CCC(=O)C=C1CC[C@@H]1[C@@H]2[C@@H](O)C[C@@]2(C)[C@H]1CC[C@]2(O)C(=O)CO [Hydrocortisone] was tested, and the “Z Score” value [2] was −3.049, the Z score [3] was −3.049 and the Activity [6] was “yes”.

With Cl.Cl.Cl.Cl.NCCCNCCCCNCCCN [Spermine tetrahydrochloride] the Activity was “no”, the “Z Score” value was 0.3942 and the Z score was 0.394.

With COc1cc(C(O)CN)ccc1O.Cl (racemic) [(±)-Normetanephrine hydrochlodride] the Z score [3] was −1.796 and the Activity [6] was “no”.

With COC(=O)c1c(C)[nH]c(C)c1C(=O)c1ccccc1Cc1ccccc1 [FPL 64176] the “Z Score” value was −1.099, the Z score [3] was −1.099 and the Activity [8] was “no”.

With CC1=NN=C(c2ccc(N)cc2)c2cc3c(cc2C1)OCO3 [GYKI 52466 hydrochloride] the “Z Score” value [2] was −1.864, the Z score [3] was −1.864 and the Activity [6] was “no”.

In the case of CCN(CC)CCNC(=O)c1cc(S(C)(=O)=O)ccc1OC [Tiapride hydrochloride], the “Z Score” value [7] is reported as 0.6889, the Z score [3] is reported as 0.689 and the Activity [5] is reported as “no”.

With O=C(O)[C@H]1CCCN[C@H]1C(=O)O (racemic) [(±)-cis-Piperidine-2,3-dicarboxylic acid] the Z score (168 h, 3 µM) was 0.155 and the Activity [9] was “no”.

In the case of O=C(O)CC[N+](=O)[O-] [3-Nitropropionic acid], the “Z Score” value is reported as −0.5631, the Z score [3] is reported as −0.563 and the Activity [6] is reported as “no”.

In the case of CC[N+](CC)(CC)CC(=O)Nc1c(C)cccc1C.[Br-], the “Z Score” value [7] is reported as 0.2653, the Z score [3] is reported as 0.265 and the Activity [8] is reported as “no”.

In the case of Oc1ccc(C2CNCCc3c2cc(O)c(O)c3Cl)cc1 (stereo not drawn) [Fenoldopam bromide], the “Z Score” value [7] is reported as 0.05219, the Z score [3] is reported as 0.052 and the Activity [8] is reported as “no”.

With Cl.NC1(C(=O)O)CC1 [1-Aminocyclopropanecarboxylic acid hydrochloride] the Activity was “yes”, the “Z Score” value was −2.401 and the Z score was −2.401.

In the case of CN1CCCC1c1cccnc1.O=C(O)C(O)C(O)C(=O)O (single isomer, unassigned; (-)) [(−)-Nicotine hydrogen tartrate salt], the Activity is reported as “no”, the “Z Score” value is reported as 0.04498 and the Z score is reported as 0.045.

With CCN(CC)CCOC(=O)c1cc(Cl)c(N)cc1OC.Cl [SDZ-205,557 hydrochloride] the “Z Score” value was −2.681, the Z score [3] was −2.681 and the Activity [5] was “yes”.
